According to article PMC12203311, “Design, synthesis, in silico and in vitro evaluation of pyrrole–indole hybrids as dual tubulin and aromatase inhibitors with potent anticancer activities” (RSC Advances, 2025):

Legend:
[1] = tested on: HS 578T; assay: NCI60 five-dose screen; type: cell-based; conditions: Homo sapiens, breast cancer; for CC50: read-out: LC50 (the source's name)
[2] = tested on: RPMI-8226; assay: NCI60 five-dose screen; type: cell-based; conditions: Homo sapiens, RPMI-8226, leukemia; for CC50: read-out: LC50 (the source's name)
[3] = tested on: MDA-MB-231/ATCC; assay: NCI60 five-dose screen; type: cell-based; conditions: Homo sapiens, breast cancer; for CC50: read-out: LC50 (the source's name)
[4] = tested on: T47D breast cancer cell line; assay: Cytotoxicity MTT assay, T47D; type: cell-based, human
Description: T47D (ATCC HTB-133) was purchased from Biomedia (Thailand) Co., LTD. L929 (ATCC CCL-1) was received as a gift from Prof. Tanapat Palaga, Department of Microbiology, Faculty of Science, Chulalongkorn University, Bangkok, Thailand. The cells were cultured in Dulbecco's Modified Eagle's Medium (DMEM; Gibco) supplemented with 10% fetal bovine serum (FBS; HyClone), 100 U mL^−1 penicillin and 100 µg mL^−1 streptomycin (Gibco) at 37 °C with 5% CO2.
The antiproliferative activity was determined by MTT assay. Briefly, the cells were plated into a 96-well microplate at the density of 10 000 cells per well. The cells were allowed to grow overnight before treated with the solutions of compounds in culture medium at the designated concentrations for 48 hours. The medium was then replaced with MTT solution (0.5 mg mL^−1 MTT in culture medium) and incubated for 3 hours. A 100 µL of DMSO was used to dissolve the produced formazan. Absorbance at 570 nm was then measured using a microplate reader (Varioskan™ LUX multimode microplate reader, Thermo Scientific™). Percent viability was calculated relative to the vehicle control (DMSO).

[5] = tested on: MCF7; assay: NCI60 five-dose screen; type: cell-based; conditions: Homo sapiens, MCF7, breast cancer; for CC50: read-out: LC50 (the source's name)
[6] = tested on: HL-60 (TB); assay: NCI60 five-dose screen; type: cell-based; conditions: Homo sapiens, leukemia; for CC50: read-out: LC50 (the source's name)
[7] = tested on: TK-10; assay: NCI60 five-dose screen; type: cell-based; conditions: Homo sapiens, TK-10, renal cancer; for CC50: read-out: LC50 (the source's name)
[8] = tested on: KM12; assay: NCI60 five-dose screen; type: cell-based; conditions: Homo sapiens, KM12, colon cancer; for CC50: read-out: LC50 (the source's name)
[9] = tested on: K-562; assay: NCI60 five-dose screen; type: cell-based; conditions: Homo sapiens, K562, K-562, leukemia; for CC50: read-out: LC50 (the source's name)
[10] = tested on: OVCAR-5; assay: NCI60 five-dose screen; type: cell-based; conditions: Homo sapiens, OVCAR-5, ovarian cancer; for CC50: read-out: LC50 (the source's name)
[11] = tested on: HCT-116; assay: NCI60 five-dose screen; type: cell-based; conditions: Homo sapiens, HCT-116, colon cancer; for CC50: read-out: LC50 (the source's name)
[12] = tested on: SNB-75; assay: NCI60 five-dose screen; type: cell-based; conditions: Homo sapiens, SNB-75, CNS cancer; for CC50: read-out: LC50 (the source's name)
[13] = tested on: SK-MEL-5; assay: NCI60 five-dose screen; type: cell-based, human; conditions: Homo sapiens; for CC50: SK-MEL-5, SK-MEL-5, melanoma, read-out: LC50 (the source's name); for GI50: SK-MEL-5, melanoma
[14] = tested on: SK-OV-3; assay: NCI60 five-dose screen; type: cell-based; conditions: Homo sapiens, SK-OV-3, ovarian cancer; for CC50: read-out: LC50 (the source's name)
[15] = tested on: SK-MEL-2; assay: NCI60 five-dose screen; type: cell-based; conditions: Homo sapiens, SK-MEL-2, melanoma; for CC50: read-out: LC50 (the source's name)
[16] = tested on: SK-MEL-28; assay: NCI60 five-dose screen; type: cell-based; conditions: Homo sapiens, SK-MEL-28, melanoma; for CC50: read-out: LC50 (the source's name)
[17] = tested on: UACC-62; assay: NCI60 five-dose screen; type: cell-based; conditions: Homo sapiens, UACC-62, melanoma; for CC50: read-out: LC50 (the source's name)
[18] = tested on: MALME-3M; assay: NCI60 five-dose screen; type: cell-based; conditions: Homo sapiens, melanoma; for CC50: read-out: LC50 (the source's name)
[19] = tested on: SF-539; assay: NCI60 five-dose screen; type: cell-based; conditions: Homo sapiens, SF-539, CNS cancer; for CC50: read-out: LC50 (the source's name)
[20] = tested on: SW-620; assay: NCI60 five-dose screen; type: cell-based; conditions: Homo sapiens, SW-620, colon cancer; for CC50: read-out: LC50 (the source's name)
[21] = tested on: U251; assay: NCI60 five-dose screen; type: cell-based; conditions: Homo sapiens, U-251, U251, CNS cancer; for CC50: read-out: LC50 (the source's name)
[22] = tested on: OVCAR-3; assay: NCI60 five-dose screen; type: cell-based; conditions: Homo sapiens, OVCAR-3, ovarian cancer; for CC50: read-out: LC50 (the source's name)
[23] = tested on: NCI-H23; assay: NCI60 five-dose screen; type: cell-based; conditions: Homo sapiens, NCI-H23, NSC lung cancer; for CC50: read-out: LC50 (the source's name)
[24] = tested on: RXF 393; assay: NCI60 five-dose screen; type: cell-based; conditions: Homo sapiens, RXF 393, renal cancer; for CC50: read-out: LC50 (the source's name)
[25] = tested on: A498; assay: NCI60 five-dose screen; type: cell-based; conditions: Homo sapiens, A498, renal cancer; for CC50: read-out: LC50 (the source's name)
[26] = tested on: MDA-MB-435; assay: NCI60 five-dose screen; type: cell-based, human; conditions: Homo sapiens; for CC50: MDA-MB-435, MDA-MB-435, melanoma, read-out: LC50 (the source's name); for GI50: MDA-MB-435, melanoma
[27] = tested on: IGROV1; assay: NCI60 five-dose screen; type: cell-based; conditions: Homo sapiens, IGROV-1; IGROV1, ovarian cancer
[28] = tested on: CCRF-CEM; assay: NCI60 five-dose screen; type: cell-based; conditions: Homo sapiens, leukemia; for CC50: read-out: LC50 (the source's name)
[29] = tested on: HCC-2998; assay: NCI60 five-dose screen; type: cell-based; conditions: Homo sapiens, HCC-2998, colon cancer; for CC50: read-out: LC50 (the source's name)
[30] = tested on: T-47D; assay: NCI60 five-dose screen; type: cell-based; conditions: Homo sapiens, T47D, breast cancer; for CC50: read-out: LC50 (the source's name)

Compound: O=C(N/N=C/c1ccc(C(=O)N2CCOCC2)[nH]1)c1[nH]c2ccc(Br)cc2c1-c1ccccc1 [Derivative 3n, (E)-5-Bromo-N′-((5-(morpholine-4-carbonyl)-1H-pyrrol-2-yl)methylene)-3-phenyl-1H-indole-2-carbohydrazide]
- GI50 [1]: 1040 nM
- CC50 [1]: > 100 µM
- GI50 [2]: 4500 nM
- CC50 [2]: > 100 µM
- GI50 [3]: 4.81 µM
- CC50 [3]: 83.2 µM
- IC50 ([4]; Homo sapiens, T47D, MTT, 48 hours): 5.4 ± 4.8 µM
- GI50 [5]: 2460 nM
- CC50 [5]: 77.8 µM
- GI50 [6]: 1840 nM
- CC50 [6]: 8.56 µM
- GI50 [7]: 10.4 µM
- CC50 [7]: > 100 µM
- GI50 [8]: 2910 nM
- CC50 [8]: 43.6 µM
- GI50 [9]: 1270 nM
- CC50 [9]: 42.7 µM
- GI50 [10]: 5.78 µM
- CC50 [10]: > 100 µM
- GI50 [11]: 2790 nM
- CC50 [11]: 66.7 µM
- GI50 [12]: 809 nM
- CC50 [12]: 88.9 µM
- CC50 [13]: 17 µM
- GI50 [13]: 1480 nM
- GI50 [14]: 5.68 µM
- CC50 [14]: > 100 µM
- GI50 [15]: 2800 nM
- CC50 [15]: 48.3 µM
- GI50 [16]: 6.1 µM
- CC50 [16]: > 100 µM
- GI50 [17]: 864 nM
- CC50 [17]: 63.7 µM
- GI50 [18]: 11.7 µM
- CC50 [18]: > 100 µM
- GI50 [19]: 2230 nM
- CC50 [19]: 34.9 µM
- GI50 [20]: 3260 nM
- CC50 [20]: > 100 µM
- GI50 [21]: 3100 nM
- CC50 [21]: 84.7 µM
- GI50 [22]: 2570 nM
- CC50 [22]: 47.4 µM
- GI50 [23]: 2830 nM
- CC50 [23]: 69.8 µM
- GI50 [24]: 1060 nM
- CC50 [24]: 14.7 µM
- GI50 [25]: 3.53 µM
- CC50 [25]: 59.9 µM
- CC50 [26]: 55.4 µM
- GI50 [26]: 392 nM
- GI50 [27]: 6.69 µM
- GI50 [28]: 3450 nM
- CC50 [28]: > 100 µM
- GI50 [29]: 2310 nM
- CC50 [29]: 42.9 µM
- GI50 [30]: 3100 nM
- CC50 [30]: > 100 µM

Compound: O=C(N/N=C/c1ccc([N+](=O)[O-])[nH]1)c1[nH]c2ccc(Br)cc2c1-c1ccccc1 [Derivative 3p, (E)-5-Bromo-N′-((5-nitro-1H-pyrrol-2-yl)methylene)-3-phenyl-1H-indole-2-carbohydrazide]
- GI50 [1]: 270 nM
- CC50 [1]: 94.3 µM
- GI50 [2]: 468 nM
- CC50 [2]: > 100 µM
- GI50 [3]: 2.14 µM
- CC50 [3]: 46.6 µM
- activity against T47D in two-dose screen ([4]; 10 µM and 50 µM): weak activity
- GI50 [5]: 394 nM
- CC50 [5]: 39 µM
- GI50 [6]: 374 nM
- CC50 [6]: > 100 µM
- GI50 [7]: 12.2 µM
- CC50 [7]: 53.8 µM
- GI50 [8]: 1170 nM
- CC50 [8]: 34.2 µM
- GI50 [9]: 365 nM
- CC50 [9]: > 100 µM
- GI50 [10]: 2.87 µM
- CC50 [10]: 40.9 µM
- GI50 [11]: 439 nM
- CC50 [11]: 33.8 µM
- GI50 [12]: 482 nM
- CC50 [12]: 40.5 µM
- CC50 [13]: 8.69 µM
- GI50 [13]: 1020 nM
- GI50 [14]: 2.95 µM
- CC50 [14]: 43 µM
- GI50 [15]: 2180 nM
- CC50 [15]: 36.5 µM
- GI50 [16]: 2.24 µM
- CC50 [16]: 43.5 µM
- GI50 [17]: 451 nM
- CC50 [17]: 40.9 µM
- GI50 [18]: 3.23 µM
- CC50 [18]: 56.2 µM
- GI50 [19]: 389 nM
- CC50 [19]: 28.1 µM
- GI50 [20]: 249 nM
- CC50 [20]: 48.4 µM
- GI50 [21]: 987 nM
- CC50 [21]: 39.2 µM
- GI50 [22]: 602 nM
- CC50 [22]: 34.8 µM
- GI50 [23]: 1450 nM
- CC50 [23]: 35.4 µM
- GI50 [24]: 411 nM
- CC50 [24]: 41.2 µM
- GI50 [25]: 2.6 µM
- CC50 [25]: 43.7 µM
- CC50 [26]: 29.8 µM
- GI50 [26]: 253 nM
- GI50 [27]: 1.48 µM
- GI50 [28]: 382 nM
- CC50 [28]: > 100 µM
- GI50 [29]: 1670 nM
- CC50 [29]: 19.6 µM
- GI50 [30]: 2400 nM
- CC50 [30]: 59.6 µM
